Assay results published in patent publication US20250195521A1 (Revolution Medicines, Inc., priority 2020, published 2025).
Several values for one entry are separate records, joined by “and”; a condition that tells them apart may be missing. Identical values can stand only once. Like-named read-outs stand apart in the source and are kept apart here.

What was measured:
[1] = tested on: Capan-1 cells (K-Ras G12V); experiment: CellTiter-Glo cell viability, Capan-1; type: cell-based, human; details: Homo sapiens, CAPAN-1, 120 h, read-out: Capan-1 Cell Viability IC50
Summary of the method: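 Endpoint: CellTiter-Glo luminescence on day 5, following ~30 min at room temperature. Data as (sample/mean DMSO)×100, four-parameter logistic fit.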

[2] = target: KRAS G12C (Homo sapiens (Human), UniProt P01116+P62937, G12C); experiment: Ras-Raf disruption/FRET/MOA assay (BRAF RBD, Cyclophilin A); type: biochemical
Method: (§1) Compound is present in plate wells as a 10-point 3-fold dilution series starting at a final concentration of 30 μM. After incubation at 25° C. for 3 hours, a mixture of Anti-His Eu—W1024 and anti-GST allophycocyanin is then added to assay sample wells at final concentrations of 10 nM and 50 nM, respectively, and the reaction incubated for an additional 1.5 hours. […] Compounds that facilitate disruption of a Ras: RAF complex are identified as those eliciting a decrease in the TR-FRET ratio relative to DMSO control wells.
(§2) Disruption of B-Raf Ras-Binding Domain (BRAF^RBD) Interaction with K-Ras by Compounds of the Invention (Also Called a FRET Assay or an MOA Assay)
(§3) Note—The following protocol describes a procedure for monitoring disruption of K-Ras G12C (GMP-PNP) binding to BRAF^RBD by a compound of the invention. This protocol may also be executed substituting other Ras proteins or nucleotides.
(§4) The purpose of this biochemical assay was to measure the ability of test compounds to facilitate ternary complex formation between a nucleotide-loaded K-Ras isoform and Cyclophilin A; the resulting ternary complex disrupts binding to a BRAF^RBD construct, inhibiting K-Ras signaling through a RAF effector. Data is reported as IC50 values.
(§5) In assay buffer containing 25 mM HEPES pH 7.3, 0.002% Tween20, 0.1% BSA, 100 mM NaCl and 5 mM MgCl2, tagless Cyclophilin A, His6-K-Ras-GMPPNP, and GST-BRAF^RBD were combined in a 384-well assay plate at final concentrations of 25 μM, 12.5 nM and 50 nM, respectively. Compound was present in plate wells as a 10-point 3-fold dilution series starting at a final concentration of 30 μM. After incubation at 25° C. for 3 hours, a mixture of Anti-His Eu—W1024 and anti-GST allophycocyanin was then added to assay sample wells at final concentrations of 10 nM and 50 nM, respectively, and the reaction incubated for an additional 1.5 hours. […] Compounds that facilitate disruption of a K-Ras: RAF complex were identified as those eliciting a decrease in the TR-FRET ratio relative to DMSO control wells.

[3] = target: KRAS G12D (Homo sapiens (Human), UniProt P01116+P62937, G12D); experiment: as above; type: biochemical
Method: as §1, §2, §3, §4, §5

[4] = target: KRAS G12S (Homo sapiens (Human), UniProt P01116+P62937, G12S); experiment: as above; type: biochemical
Method: as §1, §2, §3, §4, §5

[5] = target: KRAS G12V (Homo sapiens (Human), UniProt P01116+P62937, G12V); experiment: as above; type: biochemical; details: read-out: KRAS G12V FRET IC50
Method: as §1, §2, §3, §4, §5

[6] = target: KRAS G13C (Homo sapiens (Human), UniProt P01116+P62937, G13C); experiment: as above; type: biochemical
Method: as §1, §2, §3, §4, §5

[7] = target: KRAS G13D (Homo sapiens (Human), UniProt P01116+P62937, G13D); experiment: as above; type: biochemical
Method: as §1, §2, §3, §4, §5

[8] = target: KRAS WT (Homo sapiens (Human), UniProt P01116+P62937); experiment: as above; type: biochemical
Method: as §1, §2, §3, §4, §5

[9] = target: NRAS G12C (Homo sapiens (Human), UniProt P01111+P62937, G12C); experiment: as above; type: biochemical
Method: as §1, §2, §3, §4, §5

[10] = tested on: K-Ras G12C (NCI-H358 cells); experiment: Potency assay: pERK in NCI-H358 cells; type: cell-based, human; details: Homo sapiens; NCI-H358 cells, 4 hours; read-out: pERK EC50 (H358 KRAS G12C)
Summary of the method: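 Cells plated the day before were exposed for 4 h at 37° C, 5% CO2 to a 10-point, 3-fold DMSO dilution series (10 mM top stock), in duplicate. Phospho-ERK was read by AlphaLISA SureFire Ultra or by In-Cell Western with DRAQ5 DNA stain, and IC50 came from a 4-parameter sigmoidal fit.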

[11] = read-out: KRAS G13D FRET data IC50
[12] = read-out: KRAS WT FRET data IC50
[13] = read-out: NRAS G12C FRET data IC50

KRAS G12D, sequence (P01116 other isoform, or with tags, fused parts or gaps G12D): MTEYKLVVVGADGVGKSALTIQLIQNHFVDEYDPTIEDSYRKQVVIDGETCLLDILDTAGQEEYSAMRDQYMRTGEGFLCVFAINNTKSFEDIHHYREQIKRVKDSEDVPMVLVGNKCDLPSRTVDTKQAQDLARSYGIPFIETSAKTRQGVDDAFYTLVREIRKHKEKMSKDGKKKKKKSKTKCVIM
KRAS G12D, sequence (P62937 whole entry): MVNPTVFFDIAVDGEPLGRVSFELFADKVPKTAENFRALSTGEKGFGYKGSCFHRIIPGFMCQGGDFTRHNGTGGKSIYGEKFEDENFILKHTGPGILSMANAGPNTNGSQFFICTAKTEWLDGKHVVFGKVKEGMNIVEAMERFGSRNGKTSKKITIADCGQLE
KRAS G12S, sequence (P01116 other isoform, or with tags, fused parts or gaps G12S): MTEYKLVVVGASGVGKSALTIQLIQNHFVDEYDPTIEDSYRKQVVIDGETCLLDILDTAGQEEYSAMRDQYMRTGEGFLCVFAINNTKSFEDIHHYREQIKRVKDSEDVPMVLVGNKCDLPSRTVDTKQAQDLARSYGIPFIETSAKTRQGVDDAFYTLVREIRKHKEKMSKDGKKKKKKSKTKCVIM
KRAS G12S, sequence (P62937 whole entry): as the sequence (P62937 whole entry) above
KRAS G13D, sequence (P01116 other isoform, or with tags, fused parts or gaps G13D): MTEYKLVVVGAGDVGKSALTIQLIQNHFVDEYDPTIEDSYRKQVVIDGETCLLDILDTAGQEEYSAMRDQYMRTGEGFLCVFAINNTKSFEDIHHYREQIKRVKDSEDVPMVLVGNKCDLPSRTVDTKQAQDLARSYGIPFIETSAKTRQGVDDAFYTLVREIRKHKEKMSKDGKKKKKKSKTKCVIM
KRAS G13D, sequence (P62937 whole entry): as the sequence (P62937 whole entry) above
NRAS G12C, sequence (P01111 whole entry G12C): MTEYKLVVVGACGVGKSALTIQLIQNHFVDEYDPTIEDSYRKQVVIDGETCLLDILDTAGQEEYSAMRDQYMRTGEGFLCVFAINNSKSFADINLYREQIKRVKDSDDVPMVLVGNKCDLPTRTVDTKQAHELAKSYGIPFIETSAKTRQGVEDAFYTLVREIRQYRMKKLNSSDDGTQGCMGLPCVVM
NRAS G12C, sequence (P62937 whole entry): as the sequence (P62937 whole entry) above
KRAS G12C, sequence (P01116-2 other isoform, or with tags, fused parts or gaps G12C): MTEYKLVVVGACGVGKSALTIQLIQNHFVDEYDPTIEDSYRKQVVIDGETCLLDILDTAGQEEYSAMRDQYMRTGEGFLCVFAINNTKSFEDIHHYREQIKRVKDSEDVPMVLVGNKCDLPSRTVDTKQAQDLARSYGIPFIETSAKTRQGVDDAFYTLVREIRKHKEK
KRAS G12C, sequence (P62937 whole entry): as the sequence (P62937 whole entry) above
KRAS G12V, sequence (P01116 other isoform, or with tags, fused parts or gaps G12V): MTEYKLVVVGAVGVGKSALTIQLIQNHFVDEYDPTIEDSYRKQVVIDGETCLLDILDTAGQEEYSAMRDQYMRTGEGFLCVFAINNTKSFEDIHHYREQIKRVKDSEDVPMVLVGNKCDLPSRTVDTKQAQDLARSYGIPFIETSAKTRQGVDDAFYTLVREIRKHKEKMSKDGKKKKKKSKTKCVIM
KRAS G12V, sequence (P62937 whole entry): as the sequence (P62937 whole entry) above
KRAS WT, sequence (P01116 other isoform, or with tags, fused parts or gaps): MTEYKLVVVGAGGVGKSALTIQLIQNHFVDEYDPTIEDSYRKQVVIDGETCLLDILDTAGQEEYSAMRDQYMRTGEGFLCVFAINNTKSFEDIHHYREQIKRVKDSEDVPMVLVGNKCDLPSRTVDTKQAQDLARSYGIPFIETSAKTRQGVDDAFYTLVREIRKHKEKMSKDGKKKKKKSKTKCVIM
KRAS WT, sequence (P62937 whole entry): as the sequence (P62937 whole entry) above
KRAS G13C, sequence (P01116 other isoform, or with tags, fused parts or gaps G13C): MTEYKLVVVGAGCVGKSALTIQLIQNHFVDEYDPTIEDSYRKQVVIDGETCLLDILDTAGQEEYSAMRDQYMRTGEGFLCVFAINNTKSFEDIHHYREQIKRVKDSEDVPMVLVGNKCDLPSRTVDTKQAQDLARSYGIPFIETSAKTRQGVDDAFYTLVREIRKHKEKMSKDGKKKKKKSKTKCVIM
KRAS G13C, sequence (P62937 whole entry): as the sequence (P62937 whole entry) above

SMILES	IC50 ([2]; read-out: KRAS G12C FRET IC50)	IC50 ([3]; read-out: KRAS G12D FRET IC50)	IC50 ([4]; read-out: KRAS G12S FRET IC50)	IC50 [5]	IC50 ([6]; read-out: KRAS G13C FRET IC50)	IC50 [7, 11]	IC50 [8, 12]	IC50 [9, 13]	EC50 [10]	IC50 ([1]; K-Ras G12V, 5-day treatment)	IC50 [1]	IC50 ([2]; KRAS G12C FRET IC50)	IC50 ([3]; KRAS G12D FRET IC50)	IC50 ([4]; KRAS G12S FRET IC50)	IC50 ([6]; KRAS G13C FRET IC50)	IC50 ([7]; KRAS G13D FRET data IC50)	IC50 ([8]; KRAS WT FRET data IC50)	IC50 ([9]; NRAS G12C FRET data IC50)
CCn1c(-c2cccnc2[C@H](C)OC)c2c3cc(ccc31)-c1csc(n1)C[C@H](NC(=O)[C@H](C(C)C)N(C)C(=O)[C@H]1CCN(CCO)C1)C(=O)N1CCC[C@H](N1)C(=O)OCC(C)(C)C2 [Compound A110]	1000 to 10000 nM	1000 to 10000 nM	1000 to 10000 nM	> 10000 nM	1000 to 10000 nM	1000 to 10000 nM	1000 to 10000 nM	1000 to 10000 nM	–	> 10000 nM	–	–	–	–	–	–	–	–
CCn1c(-c2cccnc2[C@H](C)OC)c2c3cc(ccc31)-c1cc(O)cc(c1)C[C@H](NS(=O)(=O)c1ccc(O)cc1)C(=O)N1CCC[C@H](N1)C(=O)OCC(C)(C)C2 [Compound A195]	–	> 10000 nM	> 10000 nM	> 10000 nM	> 10000 nM	> 10000 nM	> 10000 nM	> 10000 nM	–	> 10000 nM	–	–	–	–	–	–	–	–
CCn1c(-c2cccnc2[C@H](C)OC)c2c3cc(ccc31)-c1cc(O)cc(c1)C[C@H](NC(=O)N1CCOCC1)C(=O)N1CCC[C@H](N1)C(=O)OCC(C)(C)C2 [Compound A199]	–	–	–	–	–	–	–	–	–	–	> 10000 nM	1000 to 10000 nM	> 10000 nM	> 10000 nM	1000 to 10000 nM	1000 to 10000 nM	1000 to 10000 nM	1000 to 10000 nM
CCn1c(-c2cccnc2[C@H](C)OC)c2c3cc(ccc31)-c1cc(O)cc(c1)C[C@H](NS(=O)(=O)C1CC1)C(=O)N1CCC[C@H](N1)C(=O)OCC(C)(C)C2 [Compound A196]	–	> 10000 nM	> 10000 nM	> 10000 nM	> 10000 nM	> 10000 nM	> 10000 nM	> 10000 nM	–	> 10000 nM	–	–	–	–	–	–	–	–
CCn1c(-c2cccnc2[C@H](C)OC)c2c3cc(ccc31)-c1cc(O)cc(c1)C[C@H](NS(=O)(=O)N1CCC1)C(=O)N1CCC[C@H](N1)C(=O)OCC(C)(C)C2 [Compound A189]	–	> 10000 nM	> 10000 nM	> 10000 nM	> 10000 nM	> 10000 nM	> 10000 nM	> 10000 nM	–	> 10000 nM	–	–	–	–	–	–	–	–
CCn1c(-c2cccnc2[C@H](C)OC)c2c3cc(ccc31)-c1cc(O)cc(c1)C[C@H](NC(=O)C(C)Cc1ccncc1)C(=O)N1CCC[C@H](N1)C(=O)OCC(C)(C)C2 (stereo partly shown) [Compound A179]	100 to 1000 nM	1000 to 10000 nM	1000 to 10000 nM	1000 to 10000 nM	100 to 1000 nM	100 to 1000 nM and 1000 to 10000 nM	100 to 1000 nM	1000 to 10000 nM	< 5000 nM	–	–	–	–	–	–	–	–	–
CCn1c(-c2cccnc2[C@H](C)OC)c2c3cc(ccc31)-c1cc(O)cc(c1)C[C@H](NS(=O)(=O)C1CS(=O)(=O)C1)C(=O)N1CCC[C@H](N1)C(=O)OCC(C)(C)C2 [Compound A191]	–	> 10000 nM	> 10000 nM	> 10000 nM	> 10000 nM	> 10000 nM	> 10000 nM	> 10000 nM	–	> 10000 nM	–	–	–	–	–	–	–	–
CCn1c(-c2cccnc2[C@H](C)OC)c2c3cc(ccc31)-c1cccc(c1)C[C@H](NC(=O)[C@H](C(C)C)N(C)C(=O)[C@H]1OCC[C@H]1c1ccccc1)C(=O)N1CCC[C@H](N1)C(=O)OCC(C)(C)C2 [Compound A429]	1000 to 10000 nM	> 10000 nM	> 10000 nM	> 10000 nM	> 10000 nM	> 10000 nM	1000 to 10000 nM	1000 to 10000 nM	–	–	–	–	–	–	–	–	–	–

More lines, main results first:

IC50 ([2]; read-out: KRAS G12C FRET IC50)	IC50 ([3]; read-out: KRAS G12D FRET IC50)	IC50 ([4]; read-out: KRAS G12S FRET IC50)	IC50 [5]	IC50 ([6]; read-out: KRAS G13C FRET IC50)	IC50 [7, 11]	IC50 [8, 12]	IC50 [9, 13]	EC50 [10]	SMILES	IC50 ([1]; K-Ras G12V, 5-day treatment)	IC50 [1]	IC50 ([2]; KRAS G12C FRET IC50)	IC50 ([3]; KRAS G12D FRET IC50)	IC50 ([4]; KRAS G12S FRET IC50)	IC50 ([6]; KRAS G13C FRET IC50)	IC50 ([7]; KRAS G13D FRET data IC50)	IC50 ([8]; KRAS WT FRET data IC50)	IC50 ([9]; NRAS G12C FRET data IC50)
100 to 1000 nM	1000 to 10000 nM	1000 to 10000 nM	100 to 1000 nM	100 to 1000 nM	100 to 1000 nM	100 to 1000 nM	100 to 1000 nM	–	CCn1c(-c2cccnc2[C@H](C)OC)c2c3cc(ccc31)-c1cc(O)cc(c1)C[C@H](NC(=O)[C@H](C(C)C)N1CNCC1=O)C(=O)N1CCC[C@H](N1)C(=O)OCC(C)(C)C2 [Compound A345]	1000 to 10000 nM	–	–	–	–	–	–	–	–
10 to 100 nM	100 to 1000 nM	100 to 1000 nM	–	10 to 100 nM	100 to 1000 nM	10 to 100 nM	10 to 100 nM	–	CCn1c(-c2cccnc2[C@H](C)OC)c2c3cc(ccc31)-c1cc(O)cc(c1)C[C@H](NC(=O)[C@H](C(C)C)N(C)C(=O)[C@@H]1C[C@@H]1F)C(=O)N1CCC[C@H](N1)C(=O)OCC(C)(C)C2 [Compound A160]	100 to 1000 nM	–	–	–	–	–	–	–	–
10 to 100 nM	100 to 1000 nM	10 to 100 nM	–	10 to 100 nM	10 to 100 nM	10 to 100 nM	10 to 100 nM	< 5000 nM	CCn1c(-c2cccnc2[C@H](C)OC)c2c3cc(ccc31)-c1cc(O)cc(c1)C[C@H](NC(=O)[C@H](C(C)C)N(C)C(=O)[C@H]1C[C@H]1F)C(=O)N1CCC[C@H](N1)C(=O)OCC(C)(C)C2 [Compound A162]	–	–	–	–	–	–	–	–	–
100 to 1000 nM	1000 to 10000 nM	100 to 1000 nM	100 to 1000 nM	100 to 1000 nM	100 to 1000 nM	100 to 1000 nM	100 to 1000 nM	< 5000 nM	CCn1c(-c2cnccc2COC)c2c3cc(ccc31)-c1cc(O)cc(c1)C[C@H](NC(=O)[C@H](C(C)C)N(C)C(=O)N1CCOCC1)C(=O)N1CCC[C@H](N1)C(=O)OCC(C)(C)C2 [Compound A257]	–	–	–	–	–	–	–	–	–
